# Results from patent publication US9308157B2, “Whitening cosmetic” (AJINOMOTO CO., INC., priority 2011, dated 2016).
# Values joined by “and” are separate entries in the source; they are usually repeats but may differ in a detail not shown here. Equal entries are not always repeated.
# Columns and labels:
# Format in all cases: cell-based
# B16 melanoma [1] = test: Melanin production rate measurement (Experimental Example 1, 6 well plate, medium + cell melanin); conditions: for melanin production suppressive effect / whitening effect when combined as component (B): combined with (A) N-Ac-CP2Et; for melanin production suppressive effect / whitening effect when combined as component (B) / melanin production suppressing effect / whitening effect when combined as component (B): summary of Table 1, highest grade stated; for melanin production suppressing effect / whitening effect when combined as component (B): combined with (A) N-Ac-CP; for activity at 20000 µM: 20 mM; for activity at 22500 µM: 22.5 mM
# Procedure: B16 melanoma was cultured in DMEM (Dulbecco's Modified Eagle Medium) (high glucose, containing 10% serum). After confluence, the cells were seeded on a 6 well plate. The next day, each well medium was exchanged with DMEM (300 μM tyrosine added) added with each evaluation sample at a given evaluation concentration (Table 1), and the cells were cultured for 3 days. […] The medium was recovered, and centrifuged at 10000 rpm for 10 min. The absorbance of the supernatant at 450 nm was measured by spectrophotometer. The medium was recovered, and the cells were rinsed once with PBS (phosphate-buffered saline). A blending solution of 4% aqueous sodium hydroxide solution and dimethyl sulfoxide (9:1) was added to the well, and the mixture was stood at room temperature for 10 min. The cells were dissolved and recovered, and centrifuged at 3500 rpm for 10 min. The absorbance (450 nm) of the supernatant was measured by spectrophotometer. The total of the melanin amount in the medium and in the cell was calculated from the analytical curve drawn using synthetic melanin. By setting the calculated value 3 days after addition of each sample at a given concentration as a relative percentage to the calculated value of the control (no sample addition) defined as 100%, the melanin production rate of each sample to the melanin amount in the control as 100% was calculated. When a sample was dissolved dimethyl sulfoxide and then added, a sample containing 0.1% dimethyl sulfoxide was used as a control (no sample addition). The melanin production rate was standardized from the amount of cell protein obtained in Experimental Example 2.
# (§1) The spectrophotometer used in this melanin production suppression test was DU800, manufactured by BECKMAN COULTER.
# The melanin production rate of each sample was measured for a single use and combined use, and the effect of the combined use was evaluated by the following criteria using the theoretical value.
# The theoretical value was melanin production rate (%) by single use of component (A)×melanin production rate (%) by single use of component (B)/100.
# B16 melanoma [2] = test: Cell viability rate measurement (Experimental Example 2, cell protein amount); conditions: for cell viability rate (single): single use, 3 days; for safety when combined as component (B): summary of Table 1, highest grade stated
# Procedure: B16 melanoma was cultured in DMEM (Dulbecco's Modified Eagle Medium) (high glucose, containing 10% serum). After confluence, the cells were seeded on a 6 well plate. The next day, each well medium was exchanged with DMEM (300 μM tyrosine added) added with each evaluation sample at a given evaluation concentration (Table 1), and the cells were cultured for 3 days. The medium was recovered, and the cells were rinsed once with PBS (phosphate-buffered saline). A blending solution of 4% aqueous sodium hydroxide solution and dimethyl sulfoxide (9:1) was added to the well, and the mixture was stood at room temperature for 10 min. The cells were dissolved and recovered, and centrifuged at 3500 rpm for 10 min, and the supernatant was diluted 3-fold with milli-Q water. Solution A (DC Protein Assay; BIO RAD, 100 μl) was added to the diluted solution (20 μl) and the mixture was admixed in a vortex. Solution B (DC Protein Assay; BIO RAD, 800 μl) was added and mixed therewith, and the mixture was stood at room temperature for 15 min. After standing, the absorbance (750 nm) was measured by a spectrophotometer. In addition, the analytical curve of albumin was determined, the protein amount of the above-mentioned solution was calculated, and the relative rate was taken as a viability rate.
# as §1
# The cell viability rate of each sample was measured for a single use and combined use, and the effect of the combined use was evaluated by the following criteria using the degree of toxic mitigation.
# The degree of toxic mitigation was cell viability rate (%) by combined use of component (A) and component (B)−cell viability rate (%) by single use of component (B).
# B16 melanoma [3] = test: Melanin production rate measurement (Experimental Example 3, 96 well plate, 5-25 mM); conditions: for IC50: Mus musculus, B16, 72 h, 3 days, samples 5-25 mM, read-out: concentration suppressing melanin production by 50%
# Procedure: The cysteine derivatives of Synthetic Example 1 and Synthetic Example 3 were measured for a melanin production rate for comparison of a whitening effect. B16 melanoma was cultured in DMEM (Dulbecco's Modified Eagle Medium) (containing high glucose, serum 10%). After confluence, it was seeded in a 96 well plate. The next day, each well medium was exchanged with DMEM added with each evaluation sample adjusted to 5-25 mM, and the cells were cultured for 3 days. The absorbance at 450 nm was measured by a microplatereader. By setting the measurement value 3 days after addition of each sample at a given concentration as a relative percentage to the measurement value of the control (no sample addition) defined as 100%, the melanin production rate of each sample to the melanin amount in the control as 100% was calculated.
# The calculated concentrations of the cysteine derivatives of Synthetic Example 1 and Synthetic Example 3 necessary for suppressing the melanin production rate by 50% are shown in Table 2.
# The microplatereader used in this melanin production suppressing test was MULTISKAN FC manufactured by Thermo Fisher Scientific Inc.
# [4] = Mus musculus, B16, 72 h, single use, 3 days, control = 100%
compound,measurement,setting,value
"COc1ccc(C(=O)O)c(O)c1 [4-MS, 4-methoxy salicylic acid]",activity at 5000 µM,"B16 melanoma [1]; Mus musculus, B16, 72 h, 5 mM (0.0084%), single use, 3 days, control = 100%",100%
same,melanin production suppressive effect / whitening effect when combined as component (B),B16 melanoma [1],extremely remarkably improved
same,cell viability rate (single),B16 melanoma [2]; 5 mM (0.0084%),87.0%
"N[C@@H](CCC(=O)N[C@@H](CS)C(=O)NCC(=O)O)C(=O)O [GSH, glutathione (reduced type)]",activity at 500 µM,"B16 melanoma [1]; Mus musculus, B16, 72 h, 0.5 mM, single use, 3 days, control = 100%",100%
same,activity at 2000 µM,"B16 melanoma [1]; Mus musculus, B16, 72 h, 2 mM, single use, 3 days, control = 100%",100%
same,melanin production suppressive effect / whitening effect when combined as component (B),B16 melanoma [1],improved
same,melanin production suppressing effect / whitening effect when combined as component (B),B16 melanoma [1],extremely remarkably improved
same,cell viability rate (single),B16 melanoma [2]; 0.5 mM,94.4%
same,cell viability rate (single),B16 melanoma [2]; 2 mM,67.8%
same,safety when combined as component (B),B16 melanoma [2]; combined with (A) N-Ac-CP2Et,remarkably improved
same,safety when combined as component (B),B16 melanoma [2]; combined with (A) N-Ac-CP,remarkably improved
"CCOC(=O)C1(C)SCC(C(=O)O)N1C(C)=O (stereo not shown) [N—Ac-CP2Et, N-acetyl-2-methylthiazolidine-2,4-dicarboxylic acid 2-ethyl ester]",activity at 15000 µM,"B16 melanoma [1]; Mus musculus, B16, 72 h, 15 mM, single use, 3 days, control = 100%",92.2%
same,activity at 20000 µM,B16 melanoma [1]; [4],62%
same,activity at 22500 µM,B16 melanoma [1]; [4],48.6%
same,cell viability rate (single),B16 melanoma [2]; 15 mM,105.7%
same,cell viability rate (single),B16 melanoma [2]; 20 mM,101.5%
same,cell viability rate (single),B16 melanoma [2]; 22.5 mM,98.6%
same,IC50,B16 melanoma [3],18.9 mM
"CC(=O)N1C(C(=O)O)CSC1(C)C(=O)O (stereo not shown) [N—Ac-CP, N-acetyl-2-methylthiazolidine-2,4-dicarboxylic acid]",activity at 20000 µM,B16 melanoma [1]; [4],59.4%
same,activity at 22500 µM,B16 melanoma [1]; [4],45.1%
same,activity at 25000 µM,"B16 melanoma [1]; Mus musculus, B16, 72 h, 25 mM, single use, 3 days, control = 100%",35.3%
same,cell viability rate (single),B16 melanoma [2]; 20 mM,95.6%
same,cell viability rate (single),B16 melanoma [2]; 22.5 mM,100.6%
same,cell viability rate (single),B16 melanoma [2]; 25 mM,97.8%
"CCOC(=O)[C@]1(C)SC[C@@H](C(=O)O)N1C(C)=O [Synthetic Example 3, (2S,4R)-N-acetyl-2-methylthiazolidine-2,4-dicarboxylic acid 2-ethyl ester]",IC50,B16 melanoma [3],16.6 mM
same,melanin production suppressing effect compared with Synthetic Example 1,B16 melanoma [3]; from Table 2,stronger
OC[C@H]1O[C@@H](Oc2ccc(O)cc2)[C@H](O)[C@@H](O)[C@@H]1O [arbutin],melanin production suppressive effect / whitening effect when combined as component (B),B16 melanoma [1],extremely remarkably improved
same,melanin production suppressing effect / whitening effect when combined as component (B),B16 melanoma [1],improved
same,cell viability rate (single),B16 melanoma [2]; 0.5 mM,85.5% and 96.5%
same,safety when combined as component (B),B16 melanoma [2]; combined with (A) N-Ac-CP2Et,improved
same,safety when combined as component (B),B16 melanoma [2]; combined with (A) N-Ac-CP,improved
"CCCCCCCCCCCCCCCCOC1=C(O)C(=O)O[C@@H]1[C@@H](O)CO [cetyl ascorbyl ether, 3-o-cetyl ascorbyl ether]",Melanin production rate (single),"B16 melanoma [1]; 30 μM, single use, 3 days, control = 100%",72.8% and 67.6%
same,melanin production suppressive effect / whitening effect when combined as component (B),B16 melanoma [1],remarkably improved
same,melanin production suppressing effect / whitening effect when combined as component (B),B16 melanoma [1],remarkably improved
same,cell viability rate (single),B16 melanoma [2]; 30 μM,75.8%
O=c1oc2c(O)c(O)cc3c(=O)oc4c(O)c(O)cc1c4c23 [ellagic acid],activity at 6 µM,"B16 melanoma [1]; Mus musculus, B16, 72 h, 6 μM, single use, 3 days, control = 100%",100%
same,melanin production suppressive effect / whitening effect when combined as component (B),B16 melanoma [1],improved
same,cell viability rate (single),B16 melanoma [2]; 6 μM,96.1%
same,safety when combined as component (B),B16 melanoma [2]; combined with (A) N-Ac-CP2Et,extremely remarkably improved
O=c1cc(CO)occ1O [kojic acid],activity at 250 µM,"B16 melanoma [1]; Mus musculus, B16, 72 h, 0.25 mM, single use, 3 days, control = 100%",66%
same,melanin production suppressive effect / whitening effect when combined as component (B),B16 melanoma [1],extremely remarkably improved
same,cell viability rate (single),B16 melanoma [2]; 0.25 mM,99.1%
same,safety when combined as component (B),B16 melanoma [2]; combined with (A) N-Ac-CP2Et,extremely remarkably improved
CCCCC/C=C\C/C=C\CCCCCCCC(=O)O [linoleic acid],activity at 75 µM,"B16 melanoma [1]; Mus musculus, B16, 72 h, 75 μM, single use, 3 days, control = 100%",71.3%
same,melanin production suppressive effect / whitening effect when combined as component (B),B16 melanoma [1],improved
same,cell viability rate (single),B16 melanoma [2]; 75 μM,105.2%
same,safety when combined as component (B),B16 melanoma [2]; combined with (A) N-Ac-CP2Et,remarkably improved
"CCCCCCc1ccc(O)cc1O [rcinol, 4-hexylresorcinol]",activity at 12.5 µM,"B16 melanoma [1]; Mus musculus, B16, 72 h, 12.5 μM, single use, 3 days, control = 100%",66.2%
same,melanin production suppressive effect / whitening effect when combined as component (B),B16 melanoma [1],improved
same,cell viability rate (single),B16 melanoma [2]; 12.5 μM,94.3%
same,safety when combined as component (B),B16 melanoma [2]; combined with (A) N-Ac-CP2Et,remarkably improved
"NC[C@H]1CC[C@H](C(=O)O)CC1 [tranexamic acid, trans-4-(aminomethyl)-cyclohexanecarboxylic acid]",activity at 10000 µM,"B16 melanoma [1]; Mus musculus, B16, 72 h, 10 mM, single use, 3 days, control = 100%",100%
same,melanin production suppressive effect / whitening effect when combined as component (B),B16 melanoma [1],extremely remarkably improved
same,cell viability rate (single),B16 melanoma [2]; 10 mM,93.1%
same,safety when combined as component (B),B16 melanoma [2]; combined with (A) N-Ac-CP2Et,remarkably improved
